According to article PMC11157767 (Molecular Cancer, 2024):
Like-named read-outs stand apart in the source and are kept apart here.

What was measured:
[1] = In vitro protein binding assay, culture media; type: in vitro ADME; details: read-out: unbound drug fraction, Culture Media, AVG
[2] = tested on: TRIM24-MET-i cells; assay: 3-day dose-response assay, TRIM24-MET-i cells; type: cell-based; details: Homo sapiens
[3] = tested on: TRIM24-MET-r cells; assay: 3-day dose-response assay, TRIM24-MET-r cells; type: cell-based; details: Homo sapiens
[4] = tested on: TRIM24-MET-i PDOX; details: vs vehicle
Description: All treatments started 18 days after transplantation. Radiotherapy was administered at 0.5 Gy per day, delivering 10 Gy total.
Each line represents one mouse. The ends of lines indicate the onset of neurological symptoms and thereby the endpoints. Treatment started on day 13.

[5] = in vitro; details: mouse, plasma
[6] = in vitro; details: mouse, brain homogenate

Compound: COc1cc2nccc(Oc3ccc(NC(=O)C4(C(=O)Nc5ccc(F)cc5)CC4)cc3)c2cc1OC [Cabozantinib]
- fraction unbound [1]: 0.033
- EC50 ([2]; 72 h, read-out: EC50 Total): 30.3 nM
- EC90 ([2]; 72 h, read-out: EC90 Total): 556 nM
- EC50 ([2]; read-out: EC50 Unbound): 1 nM
- EC90 ([2]; read-out: EC90 Unbound): 18.3 nM
- EC50 ([3]; 72 h, read-out: EC50 Total): 369 nM
- EC90 ([3]; 72 h, read-out: EC90 Total): 44900 nM
- EC50 ([3]; read-out: EC50 Unbound): 12.2 nM
- EC90 ([3]; read-out: EC90 Unbound): 1480 nM
- increase of median survival [4]: 15.5 days
- fraction unbound [5]: 0.0017
- fraction unbound [6]: 0.0025
